This test has as its target Isocitrate dehydrogenase [NADP] cytoplasmic (Homo sapiens, UniProt O75874, R132H). Put plainly: Inhibition of IDH1 R132H mutant (unknown origin) assessed as reduction in NADPH consumption using alpha-KG as substrate incubated for 5 mins followed by substrate addition and measured every 1 min.
Chain of Isocitrate dehydrogenase [NADP] cytoplasmic (O75874 2-414 R132H limits assumed): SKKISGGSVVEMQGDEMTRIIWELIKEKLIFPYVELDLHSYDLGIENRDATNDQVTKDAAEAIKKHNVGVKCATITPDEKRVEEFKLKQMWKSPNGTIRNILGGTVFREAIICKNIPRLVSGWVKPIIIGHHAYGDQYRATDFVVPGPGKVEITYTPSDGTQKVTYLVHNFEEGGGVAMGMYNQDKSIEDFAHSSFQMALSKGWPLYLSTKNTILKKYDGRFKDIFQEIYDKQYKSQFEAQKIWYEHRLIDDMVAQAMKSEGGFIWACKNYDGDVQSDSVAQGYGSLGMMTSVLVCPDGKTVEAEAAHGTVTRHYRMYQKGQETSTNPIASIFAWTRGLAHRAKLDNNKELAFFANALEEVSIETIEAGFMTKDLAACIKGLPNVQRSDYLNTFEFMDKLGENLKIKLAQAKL
Regarding `COc1c(O)c(C)c2c(c1O)[C@H]1O[C@@H]2[C@H]2C(=O)[C@@]34C(=O)N[C@@H](CC(C)C)[C@@H]3[C@H](C)C(C)=C[C@@H]4/C=C(\C)CC[C@@H](O)C(=O)[C@@H]21`, the IC50 worked out at 13.3 µM. To `CC(C)C[C@@H]1NC(=O)[C@]23[C@H]1[C@H](C)C(CO)=C[C@@H]2[C@@H]1[C@@]2(CCC[C@@]1(C)O)CC[C@]3(O)O2` belongs above 50 µM; to `CC1=C[C@@H]2/C=C(\C)CC[C@@H](O)C(=O)[C@H]3[C@H](C(=O)[C@]24C(=O)N[C@@H](CC(C)C)[C@@H]4[C@@H]1C)[C@@H]1O[C@H]3c2c(O)c(O)c(O)c(C)c21`, above 50 µM.

`COc1c(O)c(C)c2c(c1O)[C@@H]1O[C@H]2[C@H]2C(=O)[C@@]34C(=O)N[C@@H](CC(C)C)[C@@H]3[C@H](C)C(C)=C[C@@H]4/C=C(\C)CC[C@@H](O)C(=O)[C@@H]21`: the IC50 is 43.6 µM. `COc1c(O)c(C)c2c(c1O)[C@H]1O[C@@H]2[C@H]2C(=O)[C@H](O)CC/C(C)=C/[C@H]3C=C(C)[C@@H](C)[C@H]4[C@H](CC(C)C)NC(=O)[C@]43C(=O)[C@@H]21`: the IC50 was found to be 11.7 µM. In the case of `COc1c(O)c(C)c2c(c1O)[C@@H]1O[C@H]2[C@H]2C(=O)[C@H](O)CC/C(C)=C/[C@H]3C=C(C)[C@@H](C)[C@H]4[C@H](CC(C)C)NC(=O)[C@]43C(=O)[C@@H]21` it was 17.3 µM; in that of `CC1=C[C@@H]2/C=C(\C)CC[C@@H](O)C(=O)[C@H]3[C@H](C(=O)[C@]24C(=O)N[C@@H](CC(C)C)[C@@H]4[C@@H]1C)[C@H]1O[C@@H]3c2c(O)c(O)c(O)c(C)c21`, above 50 µM; in that of `Cc1ccccc1C(C(=O)NC1CCCCC1)N(C(=O)Cn1ccnc1C)c1cccc(F)c1` (stereo not given), 0.2 µM. To `CC1=C[C@@H]2/C=C(\C)CC[C@@H](O)C(=O)[C@H]3[C@H](C(=O)[C@]24C(=O)N[C@@H](CC(C)C)[C@@H]4[C@@H]1C)[C@@H]1O[C@H]3c2c(C)c(O)c(O)c(O)c21` belongs above 50 µM. To `C=C1CC[C@@H](O)[C@]23CC[C@](O)(O2)[C@@]24C(=O)N[C@@H](CC(C)C)[C@@H]2[C@H](C)C(C)=C[C@@H]4[C@@H]13` belongs above 50 µM.

By IC50 is commonly meant the point on the concentration scale where inhibition reaches its midpoint.

(Values after ChEMBL document CHEMBL4334517, “Flavipesines A and B and Asperchalasines E-H: Cytochalasans and Merocytochalasans from Aspergillus flavipes” (J Nat Prod, 2019).)
